Reference: patent US20250367332A1, “PSMA-TARGETED RADIOACTIVE METAL COMPLEX CONTAINING NITROAROMATIC HETEROCYCLIC GROUP AND PREPARATION METHOD” (BEIJING NORMAL UNIVERSITY, priority 2023, published 2025)

Test system: 22RV1-FOLH1-oe cells
Test: In vitro cell uptake of 68Ga complexes over time in 22RV1-FOLH1-oe cells
Format: cell-based
Conditions: for uptake-time profile (course of cellular uptake with prolonged incubation time): 37 KBq, 37° C., 15-120 minutes
Description: (§1) […] A 500 μL aliquot was added to each well of six 12-well plates. Each group of wells was treated with 37 KBq of [^68Ga]Ga-AAZTA-NI-PSMA, [^68Ga]Ga-AAZTA-NI-PSMA-11, and [^68Ga]Ga-HBED-CC-PSMA-11 solution. Incubation proceeded at 37° C. At 15, 30, 60, 90, and 120 minutes, uptake was terminated with PBS. Cells were lysed with 1 M NaOH, and lysates were absorbed onto filter paper for radioactivity measurement in plastic tubes. Blocking was performed at 60 minutes using excess unlabeled PSMA-11. After incubation, uptake was terminated with PBS, cells were lysed with 1 M NaOH, and lysates were absorbed onto filter paper for radioactivity measurement in plastic tubes.
(§2) 22RV1-FOLH1-oe cells were suspended at a density of 1.5×10^5 cells/mL. A 500 μL aliquot was added to each well of six 12-well plates. Each group of wells was treated with 37 KBq of [^68Ga]Ga-AAZTA-NI-PSMA, [^68Ga]Ga-DOTA-NI-PSMA, [^68Ga]Ga-HBED-CC-NI-PSMA, and [^68Ga]Ga-HBED-CC-PSMA-11 solution. Incubation proceeded at 37° C. At 15, 30, 60, 90, and 120 minutes, uptake was terminated with PBS. Cells were lysed with 1 M NaOH, and lysates were absorbed onto filter paper for radioactivity measurement in plastic tubes. Blocking was performed at 60 minutes using excess unlabeled PSMA-11. After incubation, uptake was terminated with PBS, cells were lysed with 1 M NaOH, and lysates were absorbed onto filter paper for radioactivity measurement in plastic tubes.
as §1, with “three” for “six”, “[^68Ga]Ga-AAZTA-NI-PSMA-093” for “[^68Ga]Ga-AAZTA-NI-PSMA, [^68Ga]Ga-AAZTA-NI-PSMA-11,”
as §2, with “2×10^5” for “1.5×10^5”, “the following solutions: [^68Ga]Ga-HBED-CC-PSMA-11, [^68Ga]Ga-NI-HBED-CC-PSMA-11, [^68Ga]Ga-HBED-CC-PSMA-093,” for “[^68Ga]Ga-AAZTA-NI-PSMA, [^68Ga]Ga-DOTA-NI-PSMA, [^68Ga]Ga-HBED-CC-NI-PSMA,”, “[^68Ga]Ga-NI-HBED-CC-PSMA-093.” for “[^68Ga]Ga-HBED-CC-PSMA-11 solution.”

SMILES: O=C([O-])CN(CCN(CC(=O)[O-])Cc1cc(CCC(=O)NCCCCCC(=O)NCCCC[C@H](NC(=O)N[C@@H](CCC(=O)O)C(=O)O)C(=O)O)ccc1[O-])Cc1cc(CCC(=O)O)ccc1[O-].[68Ga+3].[OH3+] [[^68Ga]Ga-HBED-CC-PSMA-11]
- uptake-time profile (course of cellular uptake with prolonged incubation time) (Application Embodiment 1, 1×10^5 cells/mL, n=3 (FIG. 12)): initially increased and subsequently decreased
- cellular uptake compared with the other radioactive metal complexes (Application Embodiment 1, versus [^68Ga]Ga-AAZTA-NI-PSMA and [^68Ga]Ga-AAZTA-NI-PSMA-11, all time points): significantly higher
- uptake-time profile (course of cellular uptake with prolonged incubation time) (Application Embodiment 2, 1.5×10^5 cells/mL, n=3 (FIG. 14)): initially increased and subsequently decreased
- uptake-time profile (course of cellular uptake with prolonged incubation time) (Application Embodiment 3, 1×10^5 cells/mL, n=3 (FIG. 16)): initially increased and subsequently decreased
- uptake-time profile (course of cellular uptake with prolonged incubation time) (Application Embodiment 4, 2×10^5 cells/mL, n=3 (FIG. 18)): gradually increased
